Experiments:
heparanase = experiment: Inhibition of T lymphocyte heparanase activity (degradation of 35S-labeled heparan sulfate of extracellular matrix); format: biochemical; conditions: medium of activated T lymphocytes, 35S-labeled extracellular matrix, various concentrations
Procedure: Heparanase activity was induced into the extracellular medium bathing activated T lymphocytes and tested by incubating the medium with extracellular matrix whose heparan sulfate was labeled with ^35 S as described (Naparstek, Y., Cohen, I. R., Fuks, Z. and I. Vlodavsky. Activated T lymphocytes produce a matrix-degrading heparan sulphate endoglycosidase. Nature 310:241 (1984)). Inhibition of heparanase activity was tested by adding various concentrations of heparin or modified heparins to the reaction mixture and measuring the effect on degradation of the labeled heparin-sulfate as described (Naparstek, Y., Cohen, I. R., Fuks, Z. and I. Vlodavsky.
Activated T lymphocytes produce a matrix-degrading heparan sulphate endoglycosidase, Nature 310:241 (1984)). Totally desulfated heparin and N-desulfated, N-acetylated heparin was prepared as described. (Ayotte, L., A. S. Perlin. NMR spectroscopic observations related to the function of sulfate groups in heparin. Calcium binding vs. biological activity. Carbohydrate Res. 145:267 (1986)).

DTH reaction = experiment: Adoptively transferred DTH to OX: ear swelling and 51Cr I-LNC migration to the ear; format: in vivo, mice; conditions: for DTH ear swelling (FIG. 6 left): I-LNC transferred intravenously, 24 h
Procedure: I-LNC were obtained from OX sensitized mice (groups A-C) and naive LNC from unsensitized mice (group D). The LNC were transferred intravenously to naive recipients that were treated (groups B-C) or untreated (groups A,D) with heparin (5 μg or 20 μg) injected 18 h and 1 h prior to cell transfer and 20 h after cell transfer. DTH ear swelling was elicited by OX at the time of cell transfer and measured 24 h later.
Right: Heparin inhibits cell migration to DTH challenge site. The experiment was done as described in FIG. 6 (left), except that I-LNC were radiolabeled with ^51 Cr prior to cell transfer into naive recipient mice. The accumulation of I-LNC in the OX challenged ears is indicated as the ^51 Cr (cpm/ear).
Mice were sensitized to 4-ethoxymethylene-2-phenyl oxazolone (OX) by painting their skins twice at 5 day intervals with about 0.1 ml of 3% OX in a vehicle of 4:1 acetone:olive oil (by volume). Their immunized draining lymph node cells (I-LNC) were then transfered (5×10^7) to recipient mice intravenously. The ability of the I-LNC to reach the site of antigen and produce a DTH reaction was assayed by challenging the recipient mice 1 hr after I-LNC transfer with 0.02 ml of 0.5% OX painted on the ear. DTH was ascertained by measuring the thickness of the ears 24 hrs later with an engineers micrometer.
The ability of the transfered I-LNC to reach the ears was tested by labeling the I-LNC before transfer with radioactive ^51 Cr (10^7 cells/ml incubated with 0.1 mCi ^51 Cr sodium chromate and washed) and measuring the amount cpm reaching the ears at the time of DTH.

Question: Which results are given for heparin?
Answer: Inhibition of degradation of heparan sulfate by heparanase (heparanase): yes; Accumulation of 51Cr I-LNC in OX challenged ears (cpm/ear, FIG. 6 right) (DTH reaction; 5 μg per injection): decreased cpm; DTH ear swelling (FIG. 6 left) (DTH reaction; 5 μg per injection): decreased ear swelling; Accumulation of 51Cr I-LNC in OX challenged ears (cpm/ear, FIG. 6 right) (DTH reaction; 20 μg per injection): did not inhibit; DTH ear swelling (FIG. 6 left) (DTH reaction; 20 μg per injection): did not inhibit

Reference: US5206223A, “Method for inhibiting heparanase activity” (Yeda Research and Development Co. Ltd., priority 1986, dated 1993)
